According to US9115137B2, “2,3,4,5-tetrahydro-1H-pyrido[4,3-B]indole compounds and methods of use thereof” (priority 2008, dated 2015):
Where two headings read alike, the source gives them in different places.

Assays:
[1] = molecular target: T1, human recombinant adrenergic α2A receptor (Homo sapiens, UniProt P08913); experiment: Adrenergic α2A radioligand binding ([3H]MK-912); conditions: read-out: Adrenergic (1 μM) α2A, percent inhibition of specific binding
T1 construct: expressed in transfected cells; host or cells: insect Sf9 cells
T1 sequence (P08913 1-465): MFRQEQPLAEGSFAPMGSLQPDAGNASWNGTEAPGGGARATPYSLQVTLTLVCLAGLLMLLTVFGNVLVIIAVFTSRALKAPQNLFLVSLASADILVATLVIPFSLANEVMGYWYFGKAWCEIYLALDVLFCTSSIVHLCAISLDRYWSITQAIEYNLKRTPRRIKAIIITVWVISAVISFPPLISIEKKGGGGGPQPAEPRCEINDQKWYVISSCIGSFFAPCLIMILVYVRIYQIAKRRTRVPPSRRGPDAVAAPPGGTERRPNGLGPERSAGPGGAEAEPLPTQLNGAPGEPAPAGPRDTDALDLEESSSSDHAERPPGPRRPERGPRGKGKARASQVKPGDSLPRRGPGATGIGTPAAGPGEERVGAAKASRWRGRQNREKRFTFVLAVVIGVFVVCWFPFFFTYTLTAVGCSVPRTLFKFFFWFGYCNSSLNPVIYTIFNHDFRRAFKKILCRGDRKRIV
Method: To evaluate in radioligand binding assays the activity of compounds of the invention, human recombinant adrenergic α2A receptor expressed in insect Sf9 cells (Uhlen S et al. J Pharmacol Exp Ther. 271:1558, 1994) in a modified Tris-HCl buffer (50 mM Tris-HCl, pH 7.4, 12.5 mM MgCl2, 2 mM EDTA) was used. Compounds of invention were incubated with 1 nM [^3H]MK-912 for 60 minutes at 25° C. MK912 is (2S-trans)-1,3,4,5′,6,6′,7,12b-octahydro-1′,3′-dimethyl-spiro[2H-benzofuro[2,3-a]quinolizine-2,4′(1′H)-pyrimidin]-2′(3′H)-one hydrochloride Non-specific binding was estimated in the presence of 10 μM WB-4101 (2-(2,6-Dimethoxyphenoxyethyl)aminomethyl-1,4-benzodioxane hydrochloride). Receptor proteins were filtered and washed, the filters were then counted to determine [^3H]MK-912 specifically bound. Compounds were screened at 1 μM or lower, using 1% DMSO as vehicle. Biochemical assay results are presented as the percent inhibition of specific binding in Table 6.

[2] = molecular target: T2, human recombinant dopamine D2L receptor (Homo sapiens, UniProt P14416); experiment: Dopamine D2L radioligand binding ([3H]Spiperone); conditions: read-out: Dopamine (1 μM) D2L, percent inhibition of specific binding
T2 construct: expressed in transfected cells; host or cells: CHO cells
Method: To evaluate in radioligand binding assays the activity of compounds of the invention, human recombinant dopamine D2L receptor expressed in Chinese hamster ovary (CHO) cells (Grandy, D. K. et al. Proc. Natl. Acad. Sci. USA. 86:9762, 1989; Hayes, G. et al., Mol. Endocrinol. 6:920, 1992) in a modified Tris-HCl buffer (50 mM Tris-HCl, pH 7.4, 1.4 mM Ascorbic Acid, 0.001% BSA, 150 mM NaCl) was used. Compounds of the invention were incubated with 0.16 nM [^3H]Spiperone for 120 minutes at 25° C. Non-specific binding was estimated in the presence of 10 μM Haloperidol. Receptor proteins were filtered and washed, the filters were then counted to determine [^3H]Spiperone specifically bound. Compounds were screened at 1 μM or lower, using 1% DMSO as vehicle. Biochemical assay results are presented as the percent inhibition of specific binding in Table 6.

[3] = molecular target: T3, human recombinant serotonin (5-Hydroxytryptamine) 5-HT6 receptor (Homo sapiens, UniProt P50406); experiment: Serotonin 5-HT6 radioligand binding ([3H]LSD); conditions: read-out: Serotonin (1 μM) 5-HT6, percent inhibition of specific binding
T3 construct: expressed in transfected cells; host or cells: human HeLa cells
Method: To evaluate in radioligand binding assays the activity of compounds of the invention, human recombinant serotonin (5-Hydroxytryptamine) 5-HT6 receptor expressed in human HeLa cells (Monsma, F. J. Jr. et al., Mol. Pharmacol. 43:320, 1993) in a modified Tris-HCl buffer (50 mM Tris-HCl, pH 7.4, 150 mM NaCl, 2 mM Ascorbic Acid, 0.001% BSA) was used. Compounds of the invention were incubated with 1.5 nM [3H]Lysergic acid diethylamide (LSD) for 120 minutes at 37° C. Non-specific binding was estimated in the presence of 5 μM Serotonin (5-HT). Receptor proteins were filtered and washed, the filters were then counted to determine [3H]LSD specifically bound. Compounds were screened at 1 μM or lower, using 1% DMSO as vehicle. Biochemical assay results are presented as the percent inhibition of specific binding in Table 7.

[4] = molecular target: T4, human recombinant adrenergic α2B receptor (Homo sapiens, UniProt P18089); experiment: Adrenergic α2B radioligand binding ([3H]Rauwolscine); conditions: read-out: Adrenergic (1 μM) α2B, percent inhibition of specific binding
T4 construct: expressed in transfected cells; host or cells: CHO-K1 cells
T4 sequence (P18089 1-450): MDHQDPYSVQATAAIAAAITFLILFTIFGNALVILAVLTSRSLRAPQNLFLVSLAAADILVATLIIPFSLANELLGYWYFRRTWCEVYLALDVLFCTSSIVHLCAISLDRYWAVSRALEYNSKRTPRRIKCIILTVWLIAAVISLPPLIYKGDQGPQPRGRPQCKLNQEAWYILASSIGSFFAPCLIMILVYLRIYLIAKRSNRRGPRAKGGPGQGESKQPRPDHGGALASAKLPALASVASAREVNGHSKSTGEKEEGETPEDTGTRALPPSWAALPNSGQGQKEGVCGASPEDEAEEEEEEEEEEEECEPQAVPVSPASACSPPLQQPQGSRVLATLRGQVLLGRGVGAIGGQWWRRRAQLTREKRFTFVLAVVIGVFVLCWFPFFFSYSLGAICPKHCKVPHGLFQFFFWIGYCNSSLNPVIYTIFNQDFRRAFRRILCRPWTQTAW
Method: To evaluate in radioligand binding assays the activity of compounds of the invention, human recombinant adrenergic α2B receptor expressed in Chinese hamster ovary (CHO-K1) cells (Uhlen S et al. Eur. J. Pharmacol. 343(1):93, 1998) in a modified Tris-HCl buffer (50 mM Tris-HCl, pH 7.4, 12.5 mM MgCl2, 1 mM EDTA, 0.2% BSA) was used. Compounds of the invention were incubated with 2.5 nM [3H]Rauwolscine for 60 minutes at 25° C. Non-specific binding was estimated in the presence of 10 μM Prozosin. Receptor proteins were filtered and washed, the filters were then counted to determine [^3H]Rauwolscine specifically bound. Compounds were screened at 1 μM or lower, using 1% DMSO as vehicle. Biochemical assay results are presented as the percent inhibition of specific binding in Table 6.

[5] = compound at 1 μM, insect Sf9 cells

T2 sequence (P14416 whole entry): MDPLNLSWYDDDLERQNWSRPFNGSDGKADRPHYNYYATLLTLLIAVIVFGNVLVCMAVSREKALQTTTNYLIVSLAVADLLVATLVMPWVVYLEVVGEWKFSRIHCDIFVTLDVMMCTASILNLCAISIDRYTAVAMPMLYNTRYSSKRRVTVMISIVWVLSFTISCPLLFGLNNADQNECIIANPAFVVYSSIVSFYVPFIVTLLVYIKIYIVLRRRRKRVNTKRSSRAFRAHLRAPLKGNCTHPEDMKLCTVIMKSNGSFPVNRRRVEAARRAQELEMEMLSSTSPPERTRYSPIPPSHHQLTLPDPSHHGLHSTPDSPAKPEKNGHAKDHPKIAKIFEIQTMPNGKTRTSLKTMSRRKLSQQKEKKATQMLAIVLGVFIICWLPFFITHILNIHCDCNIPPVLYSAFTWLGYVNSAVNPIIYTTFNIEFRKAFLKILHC
T3 sequence (P50406 whole entry): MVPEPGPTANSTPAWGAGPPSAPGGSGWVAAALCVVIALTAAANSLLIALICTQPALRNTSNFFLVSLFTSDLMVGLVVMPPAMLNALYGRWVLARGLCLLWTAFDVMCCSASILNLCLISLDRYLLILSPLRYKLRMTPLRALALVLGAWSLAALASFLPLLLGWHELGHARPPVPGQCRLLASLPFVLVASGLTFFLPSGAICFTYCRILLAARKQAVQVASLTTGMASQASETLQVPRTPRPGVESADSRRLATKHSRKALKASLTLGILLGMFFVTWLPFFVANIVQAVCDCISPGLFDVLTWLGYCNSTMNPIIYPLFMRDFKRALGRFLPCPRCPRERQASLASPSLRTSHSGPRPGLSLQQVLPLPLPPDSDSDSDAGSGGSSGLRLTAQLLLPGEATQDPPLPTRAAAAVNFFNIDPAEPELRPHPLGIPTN

SMILES	inhibition at 1 µM [1] [%]	inhibition at 1 µM [2] [%]	inhibition at 1 µM [3] [%]	inhibition at 1 µM [4] [%]	inhibition at 1 µM [1, 5] [%]	inhibition at 1 µM ([2]; compound at 1 μM, CHO cells) [%]	inhibition at 1 µM ([3]; compound at 1 μM, HeLa cells) [%]	inhibition at 1 µM ([4]; compound at 1 μM, CHO-K1 cells) [%]
CN1CCc2c(c3cc(Cl)ccc3n2CCBr)C1 [CD88, 5-(2-bromoethyl)-8-chloro-2-methyl-2,3,4,5-tetrahydro-1H-pyrido[4,3-b]indole]	80	27	87	104				
CN1CCc2c(c3cc(Cl)ccc3n2CCO)C1 [CD89, 2-(8-chloro-2-methyl-3,4-dihydro-1H-pyrido[4,3-b]indol-5(2H)-yl)ethanol]					70	0	36	100
Cc1ccc2c(c1)c1c(n2CCO)CCN(C)C1 [CD90, 2-(2,8-dimethyl-3,4-dihydro-1H-pyrido[4,3-b]indol-5(2H)-yl)ethanol]					22	-8	7	61
Cc1ccc2c(c1)c1c(n2CCBr)CCN(C)C1 [CD91, 5-(2-bromoethyl)-2,8-dimethyl-2,3,4,5-tetrahydro-1H-pyrido[4,3-b]indole]					86	15	88	102
Cc1ccc2c(c1)c1c(n2CCC#N)CCN(C)C1 [CD92, 3-(2,8-dimethyl-3,4-dihydro-1H-pyrido[4,3-b]indol-5(2H)-yl)propanenitrile]					76	3	47	94
CN1CCc2c(c3cc(Cl)ccc3n2CCC#N)C1 [CD94, 3-(8-chloro-2-methyl-3,4-dihydro-1H-pyrido[4,3-b]indol-5(2H)-yl)propanenitrile]					73	1	40	86
Cc1ccc2c(c1)c1c(n2CCNC(=O)C2CCCNC2)CCN(C)C1 (centres unmarked) [Compound 9, N-(2-(1,2,3,4-tetrahydro-2,8-dimethylpyrido[4,3-b]indol-5-yl)ethyl)piperidine-3-carboxamide]					20	2	-5	25
CCOC(=O)Cn1c2c(c3cc(Cl)ccc31)CN(C)CC2 [Compound 10, ethyl 2-(8-chloro-1,2,3,4-tetrahydro-2-methylpyrido[4,3-b]indol-5-yl)acetate]					40	12	69	71
CC(C)OC(=O)Cn1c2c(c3cc(Cl)ccc31)CN(C)CC2 [Compound 11, isopropyl 2-(8-chloro-1,2,3,4-tetrahydro-2-methylpyrido[4,3-b]indol-5-yl)acetate]					25	10	66	69
CN1CCc2c(c3cc(Cl)ccc3n2CC(=O)OC(C)(C)C)C1 [Compound 12, tert-butyl 2-(8-chloro-1,2,3,4-tetrahydro-2-methylpyrido[4,3-b]indol-5-yl)acetate]					12	23	67	45
CN1CCc2c(c3cc(Cl)ccc3n2CC(=O)OCc2ccccc2)C1 [Compound 13, benzyl 2-(8-chloro-1,2,3,4-tetrahydro-2-methylpyrido[4,3-b]indol-5-yl)acetate]					73	38	101	97
CN1CCc2c(c3cc(Cl)ccc3n2CC(=O)OCC2CCCCC2)C1 [Compound 14, cyclohexylmethyl 2-(8-chloro-1,2,3,4-tetrahydro-2-methylpyrido[4,3-b]indol-5-yl)acetate]					79	31	106	103
CN1CCc2c(c3cc(Cl)ccc3n2CC(=O)OC2CCCC2)C1 [Compound 15]					67	26	96	95
CC(C)OC(=O)CCn1c2c(c3cc(Cl)ccc31)CN(C)CC2 [Compound 17, isopropyl 3-(8-chloro-1,2,3,4-tetrahydro-2-methylpyrido[4,3-b]indol-5-yl)propanoate]					90	13	99	106
CN1CCc2c(c3cc(Cl)ccc3n2CCC(=O)OCc2ccccc2)C1 [Compound 19, benzyl 3-(8-chloro-1,2,3,4-tetrahydro-2-methylpyrido[4,3-b]indol-5-yl)propanoate]					86	31	100	106
CN1CCc2c(c3cc(Cl)ccc3n2CCC(=O)OCC2CCCCC2)C1 [Compound 20, cyclohexylmethyl 3-(8-chloro-1,2,3,4-tetrahydro-2-methylpyrido[4,3-b]indol-5-yl)propanoate]					95	19	93	103
CN1CCc2c(c3cc(Cl)ccc3n2CCC(=O)OC2CCCC2)C1 [Compound 21, cyclopentyl 3-(8-chloro-1,2,3,4-tetrahydro-2-methylpyrido[4,3-b]indol-5-yl)propanoate]					95	35	100	103
